Measurements from patent US11332459B2 (TEIJIN PHARMA LIMITED, priority 2017, dated 2022).
Where a name gives a salt, the structure may show the parent alone.

Each compound was assayed against T1, human TRPC6 (Homo sapiens, UniProt Q9Y210) (assay: TRPC6 calcium flux assay (FLIPR, OAG-stimulated calcium influx)). Conditions: HEK293 cells stably transfected with human TRPC6, read-out: hTRPC6 Potency.
T1 construct: expressed in transfected cells
T1 sequence (Q9Y210 1-931): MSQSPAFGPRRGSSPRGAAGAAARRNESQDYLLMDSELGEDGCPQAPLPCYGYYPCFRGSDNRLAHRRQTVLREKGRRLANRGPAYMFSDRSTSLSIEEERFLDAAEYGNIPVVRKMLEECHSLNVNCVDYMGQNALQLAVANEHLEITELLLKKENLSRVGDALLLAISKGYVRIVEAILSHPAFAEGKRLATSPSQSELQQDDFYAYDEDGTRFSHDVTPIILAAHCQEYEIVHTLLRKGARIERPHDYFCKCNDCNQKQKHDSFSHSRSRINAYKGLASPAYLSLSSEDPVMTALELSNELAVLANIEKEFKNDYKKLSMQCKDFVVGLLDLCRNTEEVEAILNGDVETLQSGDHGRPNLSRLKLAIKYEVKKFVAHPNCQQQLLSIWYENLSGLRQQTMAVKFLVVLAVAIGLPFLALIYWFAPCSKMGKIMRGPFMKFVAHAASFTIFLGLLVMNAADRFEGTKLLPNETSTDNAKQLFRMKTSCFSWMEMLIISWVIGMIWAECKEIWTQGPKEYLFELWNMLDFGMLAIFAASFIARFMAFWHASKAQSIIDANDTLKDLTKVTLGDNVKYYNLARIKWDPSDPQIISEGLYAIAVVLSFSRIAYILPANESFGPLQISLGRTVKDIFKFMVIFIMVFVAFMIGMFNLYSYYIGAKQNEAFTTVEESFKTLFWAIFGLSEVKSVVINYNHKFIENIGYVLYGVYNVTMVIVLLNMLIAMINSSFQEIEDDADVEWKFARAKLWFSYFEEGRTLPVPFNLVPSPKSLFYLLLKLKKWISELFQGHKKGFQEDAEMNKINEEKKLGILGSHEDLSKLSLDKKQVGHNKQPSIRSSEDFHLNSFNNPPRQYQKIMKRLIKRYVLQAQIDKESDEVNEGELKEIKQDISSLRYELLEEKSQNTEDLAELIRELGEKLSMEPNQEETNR
Type: cell-based
In short: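 IC50 derived by plotting background-corrected peak fluorescence (180 s window, normalized to OAG-triggered signal vs buffer) against dose. Stable human TRPC6 HEK293 line was dye-loaded, exposed to compound 25 min, then challenged with 50 uM final OAG in 2 mM Ca2+ HEPES buffer pH 7.2, 0.5% DMSO.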

Row | Compound | IC50
1 | N[C@@H]1CN(c2nc3cc(F)c(F)cc3n2Cc2ccccc2C(F)(F)F)CC[C@H]1F [Example 352, (3R,4R)-1-(5,6-difluoro-1-(2-(trifluoromethyl)benzyl)-1H-benzimidazol-2-yl)-4-fluoro-3-piperidinamine] | 0.328 µM
2 | CC(c1cccc(C#N)c1)n1c(N2CC[C@@H](F)[C@H](N)C2)nc2cc(F)c(F)cc21 (mixture of isomers) [Example 302, 3-(1-(2-((3R,4R)-3-amino-4-fluoropiperidin-1-yl)-5,6-difluoro-1H-benzo[d]imidazol-1-yl)ethyl)benzonitrile] | 0.101 µM
3 | N[C@@H]1CN(c2nc3cc(F)c(F)cc3n2Cc2ccc(Cl)cc2Cl)CC[C@H]1F [Example 341, (3R,4R)-1-(1-(2,4-dichlorobenzyl)-5,6-difluoro-1H-benzimidazol-2-yl)-4-fluoro-3-piperidinamine] | 0.0258 µM
4 | N[C@@H]1CCCN(c2nc3ccccc3n2Cc2ccccc2Cl)C1 [Example 374, (R)-1-(1-(2-chlorobenzyl)-1H-benzo[d]imidazol-2-yl)piperidin-3-amine] | 3.41 µM
5 | N[C@@H]1CN(c2nc3cc(F)c(F)cc3n2CC(=O)N2C[C@H]3C[C@H]3C2)CC[C@H]1F [Example 607, 2-(2-((3R,4R)-3-amino-4-fluoropiperidin-1-yl)-5,6-difluoro-1H-benzo[d]imidazol-1-yl)-1-((1R,5S)-3-azabicyclo[3.1.0]hexan-3-yl)ethanone] | 0.0143 µM
6 | N#Cc1ccc(Cn2c(N3CC[C@H](F)[C@H](N)C3)nc3ccc(F)cc32)nc1 [Example 47, 6-((2-((3R,4S)-3-amino-4-fluoropiperidin-1-yl)-6-fluoro-1H-benzo[d]imidazol-1-yl)methyl)nicotinonitrile hydrochloride] | 0.000686 µM
7 | N#Cc1ccc(Cn2c(N3CCC4CCN[C@@H]4C3)nc3ccccc32)nc1 (stereo partly drawn) [Example 25, 6-((2-((3aS,7aS)-hexahydro-1H-pyrrolo[2,3-c]pyridin-6(2H)-yl)-1H-benzo[d]imidazol-1-yl)methyl)nicotinonitrile] | 0.21 µM
8 | N[C@@H]1CN(c2nc3ccccc3n2Cc2ncc(C(F)(F)F)cn2)CC[C@H]1F [Example 193, (3R,4R)-4-fluoro-1-(1-((5-(trifluoromethyl)pyrimidin-2-yl)methyl)-1H-benzo[d]imidazol-2-yl)piperidin-3-amine] | 0.0485 µM
9 | C[C@H](c1ccc(C#N)cc1)n1c(N2CC[C@H](F)[C@H](N)C2)nc2ccccc21 [Example 317, 4-((R)-1-(2-((3R,4S)-3-amino-4-fluoropiperidin-1-yl)-1H-benzo[d]imidazol-1-yl)ethyl)benzonitrile hydrochloride] | 1.36 µM
10 | N#Cc1ccc(Cn2c(N3CC[C@H](F)[C@H](N)C3)nc3ccc(C#N)cc32)nc1 [Example 68, 2-((3R,4S)-3-amino-4-fluoropiperidin-1-yl)-1-((5-cyanopyridin-2-yl)methyl)-1H-benzo[d]imidazole-6-carbonitrile] | 0.00182 µM
11 | N#Cc1ccc2nc(N3CC[C@H](F)[C@H](N)C3)n(CC(=O)N3CCC3)c2c1 [Example 287, 2-((3R,4S)-3-amino-4-fluoro-1-piperidinyl)-1-(2-(1-azetidinyl)-2-oxoethyl)-1H-benzimidazole-6-carbonitrile] | 0.0107 µM
12 | N[C@@H]1CN(c2nc3cc(F)c(F)cc3n2CC(=O)N2C[C@@H]3[C@H](C2)C3(F)F)CC[C@H]1F [Example 623, 2-(2-((3R,4R)-3-amino-4-fluoropiperidin-1-yl)-5,6-difluoro-1H-benzo[d]imidazol-1-yl)-1-((1R,5S)-6,6-difluoro-3-azabicyclo[3.1.0]hexan-3-yl)ethanone] | 0.089 µM
13 | C[C@H](c1ccccc1Cl)n1c(N2CC[C@@H](F)[C@H](N)C2)nc2cc(F)c(F)cc21 [Example 324, (3R,4R)-1-(1-((1R)-1-(2-chlorophenyl)ethyl)-5,6-difluoro-1H-benzimidazol-2-yl)-4-fluoro-3-piperidinamine] | > 3.75 µM
14 | N#Cc1ccc2c(c1)CC[C@H]2n1c(N2CC[C@@H](F)[C@H](N)C2)nc2ccccc21 [Example 231, (R)-1-(2-((3R,4R)-3-amino-4-fluoropiperidin-1-yl)-1H-benzo[d]imidazol-1-yl)-2,3-dihydro-1H-indene-5-carbonitrile hydrochloride] | 0.737 µM
15 | CC(c1ccccn1)N(C)C(=O)Cn1c(N2CC[C@@H](F)[C@H](N)C2)nc2cc(F)c(F)cc21 (stereo partly drawn) [Example 638, 2-(2-((3R,4R)-3-amino-4-fluoropiperidin-1-yl)-5,6-difluoro-1H-benzo[d]imidazol-1-yl)-N-methyi-N-((S)-1-(pyridin-2-yl)ethyl)acetamide] | 0.425 µM
16 | Cn1ncc2c(Cn3c(N4CC[C@@H](F)[C@H](N)C4)nc4cc(F)c(F)cc43)cccc21 [Example 259, (3R,4R)-1-(5,6-difluoro-1-((1-methyl-1H-indazol-4-yl)methyl)-1H-benzimidazol-2-yl)-4-fluoro-3-piperidinamine] | 1.43 µM
17 | CC[C@H](c1ccc(C#N)cn1)n1c(N2CCC[C@H](N)C2)nc2ccccc21 [Example 299, 6-((R)-1-(2-((S)-3-aminopiperidin-1-yl)-1H-benzo[d]imidazol-1-yl)propyl)nicotinonitrile hydrochloride] | 0.00876 µM
18 | NC(=O)c1cnc(Cn2c(N3CC[C@H](F)[C@H](N)C3)nc3cc(C(F)(F)F)ccc32)cn1 [Example 123, 5-((2-((3R,4S)-3-amino-4-fluoro-1-piperidinyl)-5-(trifluoromethyl)-1H-benzimidazol-1-yl)methyl)-2-pyrazinecarboxamide] | 0.252 µM
19 | N[C@@H]1CN(c2nc3cc(F)c(F)cc3n2Cc2ccc(F)cc2Cl)CC[C@H]1F [Example 355, (3R,4R)-1-(1-(2-chloro-4-fluorobenzyl)-5,6-difluoro-1H-benzimidazol-2-yl)-4-fluoro-3-piperidinamine] | 0.037 µM
20 | CN(CC(F)(F)F)C(=O)Cn1c(N2CCCC3(CCCN3)C2)nc2ccc(F)cc21 (stereo not shown) [Example 472, 2-(6-fluoro-2-(1,7-diazaspiro[4.5]decan-7-yl)-1H-benzo[d]imidazol-1-yl)-N-methyl-N-(2,2,2-trifluoroethyl)acetamide] | 0.383 µM
21 | CCc1nc(Cn2c(N3CC[C@@H](F)[C@H](N)C3)nc3cc(F)c(F)cc32)no1 [Example 577, (3R,4R)-1-(1-((5-ethyl-1,2,4-oxadiazol-3-yl)methyl)-5,6-difluoro-1H-benzo[d]imidazol-2-yl)-4-fluoropiperidin-3-amine] | 0.184 µM
22 | CN(CC(F)F)C(=O)Cn1c(N2CC[C@@H](F)[C@H](N)C2)nc2cc(F)c(F)cc21 [Example 601, 2-(2-((3R,4R)-3-amino-4-fluoropiperidin-1-yl)-5,6-difluoro-1H-benzo[d]imidazol-1-yl)-N-(2,2-difluoroethyl)-N-methylacetamide] | 0.00556 µM
23 | N[C@@H]1CN(c2nc3cc(C(F)(F)F)ccc3n2Cc2ncc(F)cn2)CC[C@@H]1F [Example 306, (3R,4S)-4-fluoro-1-(1-((5-fluoropyrimidin-2-yl)methyl)-5-(trifluoromethyl)-1H-benzo[d]imidazol-2-yl)piperidin-3-amine] | 1.43 µM
24 | N[C@@H]1CN(c2nc3cc(F)c(F)cc3n2CC(=O)N2CCC(OC(F)F)C2)CC[C@H]1F (stereo partly drawn) [Example 626, 2-(2-((3R,4R)-3-amino-4-fluoropiperidin-1-yl)-5,6-difluoro-1H-benzo[d]imidazol-1-yl)-1-(3-(difluoromethoxy)pyrrolidin-1-yl)ethanone] | 0.117 µM
25 | N#Cc1ccc(Cn2c(N3CCC(F)(F)C(N)C3)nc3ccc(F)cc32)cc1 (stereo in doubt) [Example 416, 4-((2-((3R)-3-amino-4,4-difluoro-1-piperidinyl)-6-fluoro-1H-benzimidazo-1-yl)methyl)benzonitrile] | 0.00236 µM
26 | N[C@@H]1CN(c2nc3cc(F)ccc3n2Cc2ncc(Cl)cn2)CC[C@H]1O [Example 494, (3R,4R)-3-amino-1-(1-((5-chloropyrimidin-2-yl)methyl)-5-fluoro-1H-benzo[d]imidazol-2-yl)piperidin-4-ol] | 0.0126 µM
27 | Cc1nc(Cn2c(N3CC[C@@H](F)[C@H](N)C3)nc3cc(F)c(F)cc32)no1 [Example 572, (3R,4R)-1-(5,6-difluoro-1-((5-methyl-1,2,4-oxadiazol-3-yl)methyl)-1H-benzo[d]imidazol-2-yl)-4-fluoropiperidin-3-amine] | 0.106 µM
28 | N#Cc1ccc(Cn2c(N3CCC[C@H](N)C3)nc3c(Cl)cccc32)nc1 [Example 3, (S)-6-((2-(3-aminopiperidin-1-yl)-4-chloro-1H-benzo[d]imidazol-1-yl)methyl)nicotinonitrile] | 0.00199 µM
